Publication PMC6628648, “Enabling microbial syringol conversion through structure-guided protein engineering” (Proceedings of the National Academy of Sciences of the …, 2019)
Like-named read-outs stand apart in the source and are kept apart here.

Legend:
[1] = target: T1, GcoA variant F169I (Amycolatopsis sp., UniProt P0DPQ7, F169I); test: NADH consumption assay (specific activity) with GcoB; assay type: biochemical, Amycolatopsis sp. ATCC 39116; settings: saturating (200 µM) substrate, pH 7.5, 25°C
T1 construct: GST (N, cleaved yes); made in house; host or cells: E. coli Rosetta 2 (DE3)

[2] = target: T2, GcoA variant F169V (Amycolatopsis sp., UniProt P0DPQ7, F169V); test: as above; assay type: biochemical, Amycolatopsis sp. ATCC 39116; settings: saturating (200 µM) substrate, pH 7.5, 25°C
T2 construct: GST (N, cleaved yes); made in house; host or cells: E. coli Rosetta 2 (DE3)

[3] = target: T3, GcoA variant F169S (Amycolatopsis sp., UniProt P0DPQ7, F169S); test: as above; assay type: biochemical, Amycolatopsis sp. ATCC 39116; settings: saturating (200 µM) substrate, pH 7.5, 25°C
T3 construct: GST (N, cleaved yes); made in house; host or cells: E. coli Rosetta 2 (DE3)

[4] = target: T4, WT GcoA (Amycolatopsis sp., UniProt P0DPQ7); test: NADH consumption assay (steady-state kinetics, specific activity) with GcoB; assay type: biochemical, Amycolatopsis sp. ATCC 39116; settings: for Specific activity: WT, NADH consumption, saturating (200 µM) substrate, pH 7.5, 25°C
T4 construct: GST (N, cleaved yes); made in house; host or cells: E. coli Rosetta 2 (DE3)
T4 sequence (P0DPQ7 1-407): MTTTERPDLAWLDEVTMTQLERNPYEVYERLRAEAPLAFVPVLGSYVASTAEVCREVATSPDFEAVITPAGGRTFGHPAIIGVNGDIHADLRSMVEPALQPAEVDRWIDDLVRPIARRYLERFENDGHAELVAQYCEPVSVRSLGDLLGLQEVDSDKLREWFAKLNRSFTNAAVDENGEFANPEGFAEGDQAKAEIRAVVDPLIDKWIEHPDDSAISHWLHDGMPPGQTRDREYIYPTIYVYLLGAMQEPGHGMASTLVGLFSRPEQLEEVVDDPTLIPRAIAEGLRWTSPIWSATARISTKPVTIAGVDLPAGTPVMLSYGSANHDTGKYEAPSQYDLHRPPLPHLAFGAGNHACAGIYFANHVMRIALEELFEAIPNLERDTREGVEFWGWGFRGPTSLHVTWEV

[5] = target: GcoA-F169A (Amycolatopsis sp., UniProt P0DPQ7, F169A); test: Substrate dissociation constant by ferric spin-state (UV/vis) titration; assay type: binding, Amycolatopsis sp. ATCC 39116; design: GST (N, cleaved yes); made in house; host or cells: E. coli Rosetta 2 (DE3)
Method: The equilibrium binding constant, KD, for GcoA-F169A and guaiacol, syringol, and 3MC was determined as described previously ([28]) and detailed in SI Appendix. […]
vi = Vmax[S]/(KM + [S]) (4)
Determination of substrate dissociation constants (KD) with F169A. 0-60 µM of guaiacol, syringol, or 3MC in 0.5 or 1 µM aliquots, were titrated into a cuvette containing 3 µM F169A GcoA in 25 mM HEPES, 50 mM NaCl, pH 7.5. The spectrum after each substrate addition was recorded, beginning with no substrate bound. The solution reached equilibrium before the next addition. A difference spectrum was made to illustrate the shift from a low-spin aquo-heme complex to the high-spin substrate-bound complex (spectral […]
shift from 417 nm to 388 nm). […] The absorbance […]
at 388 nm (Abs388-417 nm) was plotted as a function of [substrate], yielding a quadratic curve that was fit to equation (5) to determine […]
Δ Absobs = Δ Absmax2Et(L0 + Et + KD − √(L0 + Et + Kd)2 − 4Et ∗ L0) (5)
Where L0, Et, KD, and ΔAbsmax are the ligand concentrations, total protein (subunit) concentration, the equilibrium dissociation constant, and the maximum Abs388-417 nm, respectively. Reported values are the average of 2 or more measurements.
Formaldehyde determination. A colorimetric assay using tryptophan can be used to quantify the amount of formaldehyde produced in F169 GcoA/B reactions with guaiacol, syringol, or 3MC. 0.2 µM each of F169 GcoA mutants and GcoB were dissolved in air-saturated buffer (25 mM HEPES, 50 mM NaCl) in a cuvette at pH 7.5, 25 °C. 100 µg/mL catalase was added to each reaction to capture any H2O2 formed during the uncoupled reaction. 200 μM NADH was added and the background rate recorded. 100 (guaiacol, syringol, or 3MC) or 200 (syringol) μM of substrate was then added and the reaction monitored until there was no more change, due to either substrate, NADH or O2 depletion, whichever occurred first. […] After cooling, the absorbance was read at 575 nm and the [formaldehyde] calculated by using ε575 nm = 4.2 mM-1 cm-1, obtained with formaldehyde as a standard (1). […]

[6] = WT GcoA, apparent, 0.2 µM GcoAB, 300 µM NADH, 210 µM O2, 0–300 µM substrate, pH 7.5, 25 °C

T2 sequence (P0DPQ7 whole entry F169V): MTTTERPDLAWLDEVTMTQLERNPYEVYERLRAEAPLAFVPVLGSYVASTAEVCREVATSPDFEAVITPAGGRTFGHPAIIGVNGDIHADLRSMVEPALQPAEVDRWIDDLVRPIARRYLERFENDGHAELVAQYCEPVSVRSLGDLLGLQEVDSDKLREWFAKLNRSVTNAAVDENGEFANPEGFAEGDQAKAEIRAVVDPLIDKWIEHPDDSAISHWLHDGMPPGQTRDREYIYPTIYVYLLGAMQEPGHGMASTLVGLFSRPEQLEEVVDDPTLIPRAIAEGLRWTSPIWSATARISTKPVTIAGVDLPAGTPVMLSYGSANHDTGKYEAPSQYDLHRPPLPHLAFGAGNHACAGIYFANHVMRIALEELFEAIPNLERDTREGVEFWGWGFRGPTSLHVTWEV
GcoA-F169A, sequence (P0DPQ7 whole entry F169A): as the sequence (P0DPQ7 whole entry F169V) above, with V169A counted along it
T1 sequence (P0DPQ7 whole entry F169I): as the sequence (P0DPQ7 whole entry F169V) above, with V169I counted along it
T3 sequence (P0DPQ7 whole entry F169S): as the sequence (P0DPQ7 whole entry F169V) above, with V169S counted along it

| Compound | Specific activity [1] [μmol sec-1 μmol-1 GcoA] | Specific activity [2] [μmol sec-1 μmol-1 GcoA] | Specific activity [3] [μmol sec-1 μmol-1 GcoA] | Specific activity [4] [μmol sec-1 μmol-1 GcoA] | Kd ([5]; GcoA-F169A, air-saturated 25 mM Hepes, 50 mM NaCl, pH 7.5, 25 °C, low-spin (417 nm) to high-spin (388 nm) change) [µM] | Km [4, 6] [µM] | kcat [4, 6] [s⁻¹] | Kd [5] [µM] | demethylation by WT GcoA ([4]; WT GcoA 0.2 μM, 300 μM NADH, 210 μM O2, pH 7.5, 25 °C) |
| --- | --- | --- | --- | --- | --- | --- | --- | --- | --- |
| COc1cccc(O)c1O [3MC, 3-methoxycatechol] | 1.1 ± 0.7 | 5.7 ± 0.3 | 6.0 ± 0.8 | 3.2 ± 0.2 | 9.5 ± 0.2 | – | – | – | – |
| COc1ccccc1O [guaiacol, 2-methoxyphenol] | 1.4 ± 0.2 | 5.3 ± 0.2 | 5.7 ± 0.8 | 5.0 ± 0.1 | – | 60 ± 10 | 6.8 ± 0.02 | 7.1 ± 0.1 | – |
| COc1cccc(OC)c1O [syringol, 2,6-dimethoxyphenol] | 0.56 ± 0.2 | 4.1 ± 0.8 | 5.1 ± 0.9 | – | – | – | – | 1.7 ± 0.07 | unable to demethylate syringol |
